According to US8043631B2, “Tumor targeting drug-loaded particles” (priority 2005, dated 2011):

Key:
peritoneal cancer = conditions: intraperitoneal administration; cited from earlier work
[1] = system: human head and neck FaDu xenografts; assay: nano-sized latex bead delivery and dispersion in tumors after tumor priming; format: in vivo, Mice; conditions: paclitaxel 40 milligrams per kilogram intravenously, beads 48 hours later, tumors excised 24 hours after
Protocol: Mice were implanted subcutaneously with human head and neck FaDu xenografts, and divided in two groups. […] The control group (without tumor priming) only received the vehicle. Forty-eight hours later, animals received an intravenous injection of red fluorescent latex beads of 100, or 200 nm diameter. Tumors were excised 24 hours after the injection of the beads and examined. […] The percentage of area in tumors occupied by particles was calculated as (total number of deep-derived pixels) divided by (total number of pixels per microscopic field), which provided a measurement of the dispersion area. The average bead concentration in tumors was the average fluorescence intensity, which was calculated as (mean intensity of bead-derived pixels multiplied by total number of bead-derived pixels) divided by (total number of pixels per microscopic field). Eight tumors were used per data point.

[2] = system: stage T0 and T1 bladder tumors obtained from human patients; conditions: cited from earlier work
[3] = system: Human RT4 bladder transitional bladder cancer cells; assay: cytotoxicity in RT4 cells, immediate and delayed effect, sulforhodamine B assay; format: cell-based; conditions: immediate effect
[4] = system: Histocultures of head and neck FaDu xenograft tumors; assay: Lipo-siRNA penetration into tumor histocultures with and without tumor priming; format: cell-based; conditions: paclitaxel 0.5 μM maintained for 48 hour, versus no priming
Protocol: Histocultures of head and neck FaDu xenograft tumors were maintained in vitro. Penetration of siRNA, formulated in cationic liposomes, was evaluated with and without tumor priming pretreatment. To facilitate detection, siRNA were labeled with green fluorescence (siGLO) and lipids were labeled with a red fluorescence marker. […] In the overlay picture, the red and green fluorescent images are combined. […] The bars indicate a length of 100 μm.

SMILES	extension of survival time in patients (peritoneal cancer)	delivery of latex beads to tumors after tumor priming [1]	IC50 [2]	maximal inhibition ([3]; 48 hours)	maximal inhibition ([3]; 96 hours)	penetration of siGLO-loaded liposomes after paclitaxel priming [4]
N.N.[Cl][Pt][Cl] [cisplatin]	about 20%					
CC(=O)O[C@H]1C(=O)[C@@]2(C)[C@H]([C@H](OC(=O)c3ccccc3)[C@]3(O)C[C@H](OC(=O)[C@H](O)[C@@H](NC(=O)c4ccccc4)c4ccccc4)C(C)=C1C3(C)C)[C@]1(OC(C)=O)CO[C@@H]1C[C@@H]2O [paclitaxel]		enhanced the delivery of the 100- and 200-nm latex beads	1200 nM	60%	84%	at least five-fold deeper
